The source of these data is patent US8420859B2, “Formulations” (Syngenta Limited, priority 2006, dated 2013).

Data set [1] deals with skin. As to the kind of experiment: SIFT (Skin Integrity Function Test): electrical resistance of skin after exposure. The text has this:
Skin irritation and damage can be measured most easily by a well-known SIFT (Skin Integrity Function Test) procedure measuring the electrical resistance of the skin after exposure to the material of interest and comparing this to the electrical resistance of untreated skin. […] SLS is used in shampoo and toothpaste formulations and is a suitable control because much is known about its irritating behaviour on human skin and eye tissue.

The nature of data set [2]: Flash point, Seta flash 3 closed cup tester. It counts as physicochemical. To be noted: Seta flash 3 closed cup tester model 30000-0. The method, then:
The flammability of solvents is of concern to minimise risk during storage, transport and use. Typically the risk is assessed by measuring the flash point of the solvent. […] The measured value was 108° C.

Data set [3] concerns amaranthus retroflexus (AMARE), alopecurus myosuorides (ALOMY), chenopodium album (CHEAL) and digitaria sanguinalis (DIGSA). As to the kind of experiment: Phytotoxic damage to young plants sprayed with solvent. It counts as in vivo. The conditions noted are these: for Observed damage with solvent and Tween 20: solvent 1% w/w plus 0.5% Tween 20, 2500 litres per hectare. The text has this: Formulations that are applied to crop plants can often lead to phytotoxic damage. This damage may take the form of the formation of necrotic spots where sprayed formulation has landed on leaf surfaces or it may take the form of chlorosis or larger scale damage to the plant such as dessication and death. In order to assess the safety of solvents to plant species they were sprayed at high usage rates and high water volumes onto very sensitive, young plants.
The plant species amaranthus retroflexus (AMARE), alopecurus myosuorides (ALOMY), chenopodium album (CHEAL) and digitaria sanguinalis (DIGSA) were grown from seed under glass house conditions until they reached the first leaf stage. A solvent was dissolved in distilled water at a rate of 1% w/w and sprayed onto the plants at a rate of 2500 litres per hectare using a laboratory track sprayer. The plants were maintained in the glasshouse for a period of 2 weeks in order to observe any effects on the plants. Untreated plants were grown and kept under the same conditions as a direct comparison to the treated samples. A second set of identical plants was also sprayed with the novel solvent however in this case 0.5% of the commercial surfactant Tween 20 (T) was also added to the spray solution. In this experiment control plants for comparison were also sprayed with 0.5% Tween 20 but not with the solvent. Plants were examined after 1, 2, 6, 7, 9 and 13 days to try to find evidence of damage to the treated plants. All experiments were carried out in duplicate.

For data set [4], the system named is daphnia. Put plainly: Daphnia screening at 100 mg/l, immobility over 24 and 48 hours. It counts as in vivo. The conditions noted are these: single concentration 100 mg/l, 18-19° C., four replicates; for EC50: 48 h. The procedure: Daphnia screening is commonly carried out to assess the inherent toxicity of chemicals. In this test five daphnia were placed in a beaker full of water held between 18 and 19° C. A lactamide chemical of interest was introduced to a concentration of 100 mg/l and the daphnia were monitored over 24 and 48 hours. Any daphnia which became immobile were recorded and the number was used for the assessment. If less than half of the daphnia were immobile after 48 hours the EC50 (48 hours) figure was classified as being >100 mg/l [otherwise, it would be less than or equal to 100 mg/l]. The lactamides of Table 6 were tested and their EC50 figures are tabulated (each experiment was replicated four times and in fact in all these tests none of the daphnia died): […]

Data set [5] is described as follows: Solubility of cyproconazole in solvent (saturated solution, HPLC). It counts as physicochemical. The procedure:
A sample of a solvent (200 microlitres) was added to a 4 ml volume glass vial. The pesticide cyproconazole was added to the vial and shaken to allow thorough mixing. The vial was left to equilibrate at 25° C. for 24 hours after which time it was examined visually. If the solid had dissolved a further quantity of cyproconazole was added, the vial shaken and then left for another 24 hours. This process was repeated until a saturated solution had formed after which time the vial was left to equilibrate for one week. The glass vial was thoroughly shaken using a laboratory Whirlimixer™ (T) (Fisons Scientific Instruments Limited), once per day, during this period. After this time the sample was centrifuged, the supernatant was sampled and analysed by HPLC with reference to a known weight of pure cyproconazole, in order to determine the concentration of cyproconazole in solution.

[6] abbreviates: solvent 1% w/w in distilled water, 2500 litres per hectare, first leaf stage plants, examined 1-13 days, duplicate.
Setting [7] is: first leaf stage plants, examined 1-13 days, duplicate.

Bounds are passed on as bounds.

Take `CC(O)C(=O)N(C)C` (stereo not drawn) [dimethyl lactamide, N,N-dimethyl lactamide]: the Electrical resistivity in data set [1] (1 % w/w) is recorded as 8.04 kilo ohms; in data set [1] (10 % w/w), 7.72 kilo ohms. In data set [2], the flash point was determined as 108 °C.
What is called EC50 is the midpoint of the concentration-response curve. Lower therefore signals higher potency in that assay. On to `C=CCNC(=O)C(C)O` (stereo not drawn) [N-allyl lactamide], for which the “Observed damage with solvent” value in data set [3] (setting [6]) is listed as “None”. In addition, the “Observed damage with solvent and Tween 20” value in data set [3] (setting [7]) is reported as “None”. In data set [4], this compound came in with a half-maximal effective concentration (EC50) greater than 100 µg/mL.
On to `CC(C)NC(=O)C(C)O` (stereo not drawn) [N-isopropyl Lactamide], for which the “Observed damage with solvent” value in data set [3] (setting [6]) is on record as “None”. Further, the “Observed damage with solvent and Tween 20” value in data set [3] (setting [7]) is given as “None”.
Regarding N-2-hydroxyethyl piperidinyl lactamide, the “Observed damage with solvent” value in data set [3] (setting [6]) was “None”. The “Observed damage with solvent and Tween 20” value in data set [3] (setting [7]) was “None”. In data set [4], the “EC50 (48 hours)” value was greater than 100 µg/mL. In addition, the “% cyproconazole in solution” value in data set [5] is given as 19.3% w/w.
On to `CCN(CC)CCCNC(=O)C(C)O` (stereo not drawn) [3-diethylamino propyl lactamide], for which the “Observed damage with solvent” value in data set [3] (setting [6]) is listed as “None”.
On to `CC(C)CNC(=O)C(C)O` (stereo not drawn) [N-isobutyl lactamide], for which, in data set [3] (setting [6]), the “Observed damage with solvent” value is “None”. For the same compound, the “Observed damage with solvent and Tween 20” value in data set [3] (setting [7]) was “None”.
Regarding N-1-hyroxyethylbutyl lactamide, the “Observed damage with solvent” value in data set [3] (setting [6]) is recorded as “None”. For the same compound, the “Observed damage with solvent and Tween 20” value in data set [3] (setting [7]) was “None”.
With `CC(C)CCC(C)NC(=O)C(C)O` (stereo not drawn) [N-1,4-dimethylpentyl lactamide], the “% cyproconazole in solution” value in data set [5] came to 10.5% w/w.
Turning to `CC(C)CC(C)NC(=O)C(C)O` (stereo not drawn) [N-1,3-dimethyl butyl lactamide], the “Observed damage with solvent” value in data set [3] (setting [6]) is on record as “None”. Besides, in data set [3] (setting [7]), the “Observed damage with solvent and Tween 20” value was “None”.
In the case of `CCCCCCCCCCCCOS(=O)(=O)[O-].[Na+]` [SLS, sodium lauryl sulphate], the Electrical resistivity is recorded as 2.03 kilo ohms in data set [1] (0.5% w/w aqueous solution, Table 2, untreated control 8.00); 1.84 kilo ohms in data set [1] (1.0% solution, Table 2, untreated control 8.00); 0.91 kilo ohms in data set [1] (10.0% solution, Table 2, untreated control 8.00); 0.91 kilo ohms in data set [1] (10% w/w solution, skin post-treatment, mean of five measurements, untreated control 8.00).
As to `CCNC(=O)C(C)O` (stereo not drawn) [N-ethyl lactamide], in data set [3] (setting [6]), the “Observed damage with solvent” value is reported as “None”. Moreover, the “Observed damage with solvent and Tween 20” value in data set [3] (setting [7]) was “None”.
On to `CCN(CCO)C(=O)C(C)O` (stereo not drawn) [N-ethyl-N-2-hydroxyethyl lactamide], for which the “Observed damage with solvent” value in data set [3] (setting [6]) was “None”. Also, the “Observed damage with solvent and Tween 20” value in data set [3] (setting [7]) is “None”. Further, the “EC50 (48 hours)” value in data set [4] is greater than 100 µg/mL. In addition, the “% cyproconazole in solution” value in data set [5] is on record as 18.2% w/w.
Take `CC(O)C(=O)NCc1ccccc1` (stereo not drawn) [N-benzyl Lactamide]: the “Observed damage with solvent” value in data set [3] (setting [6]) was “None”. In data set [3] (setting [7]), the “Observed damage with solvent and Tween 20” value was “None”.
Regarding `CCCCC(CC)CNC(=O)C(C)O` (stereo not drawn) [N-(2-ethylhexyl) lactamide], in data set [4], the EC50 is greater than 100 µg/mL.
As for `CCCCN(C)C(=O)C(C)O` (stereo not drawn) [N-methyl-N-butyl lactamide], the “Observed damage with solvent” value in data set [3] (setting [6]) is recorded as “None”. For the same compound, the “Observed damage with solvent and Tween 20” value in data set [3] (setting [7]) was “None”. The “EC50 (48 hours)” value in data set [4] was greater than 100 µg/mL. Besides, in data set [5], the “% cyproconazole in solution” value is given as 33.0% w/w.
`CC(O)C(=O)NCCO` (stereo not drawn) [N-2-hydroxyethyl lactamide]: the “Observed damage with solvent” value in data set [3] (in vivo) was “None”.
Take `CC(O)C(=O)NN1CCOCC1` (stereo not drawn) [N-morpholinyl lactamide]: the “Observed damage with solvent” value in data set [3] (setting [6]) is “None”. In addition, the “Observed damage with solvent and Tween 20” value in data set [3] (setting [7]) is reported as “None”. Also, the EC50 in data set [4] is greater than 100 µg/mL.
With `CCC(CO)NC(=O)C(C)O` (stereo not drawn) [N-1-ethyl-2-hydroxyethyl lactamide], the “Observed damage with solvent and Tween 20” value in data set [3] (setting [7]) is given as “None”.
For `CC(O)C(=O)NCCCN1CCOCC1` (stereo not drawn) [N-propyl morpholynyl lactamide], the “Observed damage with solvent” value in data set [3] (setting [6]) was “None”. Moreover, the “Observed damage with solvent and Tween 20” value in data set [3] (setting [7]) is “None”.
For `CCC(C)NC(=O)C(C)O` (stereo not drawn) [N-sec-butyl lactamide], in data set [3] (setting [6]), the “Observed damage with solvent” value is “None”. In addition, the “Observed damage with solvent and Tween 20” value in data set [3] (setting [7]) is “None”.
Consider `CCCN(C)C(=O)C(C)O` (stereo not drawn) [N-methyl-N-propyl lactamide], for which, in data set [3] (setting [6]), the “Observed damage with solvent” value is “None”. Moreover, in data set [3] (setting [7]), the “Observed damage with solvent and Tween 20” value is reported as “None”. Also, the “EC50 (48 hours)” value in data set [4] was greater than 100 µg/mL. The “% cyproconazole in solution” value in data set [5] came out at 27.3% w/w.
Turning to `CC(O)C(=O)NN1CCCC1` (stereo not drawn) [N-pyrrolidinyl lactamide], the “Observed damage with solvent” value in data set [3] (setting [6]) was “None”. The “Observed damage with solvent and Tween 20” value in data set [3] (setting [7]) was “None”.
Take `CC(O)C(=O)N(CCO)Cc1ccccc1` (stereo not drawn) [N-hydroxyethyl-N-benzyl lactamide]: in data set [3] (setting [6]), the “Observed damage with solvent” value is listed as “None”. Also, the “Observed damage with solvent and Tween 20” value in data set [3] (setting [7]) is “None”. In data set [4], the “EC50 (48 hours)” value was greater than 100 µg/mL. Further, in data set [5], the “% cyproconazole in solution” value came to 25.0% w/w.
For `CCC(CC)NC(=O)C(C)O` (stereo not drawn) [N-(1-ethylpropyl) lactamide], the EC50 in data set [4] is greater than 100 µg/mL.
